Laboratory results taken from the NIST ThermoML archive (doi:10.1021/je700026d).

Test: xn = mol fraction of the nth substance listed
Settings: Liquid; for speed of sound: 100 kPa, Linear variable-path acoustic interferometer; for mass density: Pycnometric method; for viscosity: Capillary tube (Ostwald / Ubbelohde) method

COCCOC [1,2-dimethoxyethane] + NC=O
298.15 K
Settings	speed of sound [m/s]
x2 = 0	1146.2
x2 = 0.1819	1200.3
x2 = 0.3334	1254.3
x2 = 0.4616	1306.2
x2 = 0.5715	1355
x2 = 0.6668	1399.9
x2 = 0.7501	1441.9
x2 = 0.8236	1480.5
x2 = 0.8889	1518.5
x2 = 0.9474	1556.1

Settings	mass density, 298.15 K [kg/m3]	mass density, 308.15 K [kg/m3]	mass density, 318.15 K [kg/m3]	viscosity, 298.15 K [mPa·s]	viscosity, 308.15 K [mPa·s]	viscosity, 318.15 K [mPa·s]
101 kPa, x2 = 0	861.5	850.7	839.6	–	–	–
101 kPa, x2 = 0.1819	893.1	883.5	874.6	–	–	–
101 kPa, x2 = 0.3334	920.1	910.4	902.6	–	–	–
101 kPa, x2 = 0.4616	946	936.3	929.4	–	–	–
101 kPa, x2 = 0.5715	971.8	962.3	955.9	–	–	–
101 kPa, x2 = 0.6668	997.3	988.5	982.2	–	–	–
101 kPa, x2 = 0.7501	1022.2	1013.6	1007.5	–	–	–
101 kPa, x2 = 0.8236	1048.3	1039.4	1033.3	–	–	–
101 kPa, x2 = 0.8889	1073.7	1065.7	1059.2	–	–	–
101 kPa, x2 = 0.9474	1100.3	1092.7	1085.5	–	–	–
101.3 kPa, x2 = 0	–	–	–	0.409	0.366	0.33
101.3 kPa, x2 = 0.1819	–	–	–	0.603	0.522	0.459
101.3 kPa, x2 = 0.3334	–	–	–	0.848	0.713	0.609
101.3 kPa, x2 = 0.4616	–	–	–	1.164	0.952	0.785
101.3 kPa, x2 = 0.5715	–	–	–	1.545	1.243	0.994
101.3 kPa, x2 = 0.6668	–	–	–	1.925	1.536	1.218
101.3 kPa, x2 = 0.7501	–	–	–	2.296	1.806	1.427
101.3 kPa, x2 = 0.8236	–	–	–	2.627	2.045	1.614
101.3 kPa, x2 = 0.8889	–	–	–	2.899	2.243	1.775
101.3 kPa, x2 = 0.9474	–	–	–	3.12	2.408	1.903

CC(=O)c1ccccc1 [acetophenone] + NC=O
298.15 K
Settings	speed of sound [m/s]
x2 = 0	1296.4
x2 = 0.2286	1304.8
x2 = 0.4001	1323.3
x2 = 0.5334	1345.8
x2 = 0.6401	1379.3
x2 = 0.7273	1413.6
x2 = 0.8001	1456.5
x2 = 0.8616	1488.4
x2 = 0.9143	1527.3
x2 = 0.96	1558.9

101.3 kPa
Settings	mass density, 298.15 K [kg/m3]	mass density, 308.15 K [kg/m3]	mass density, 318.15 K [kg/m3]	viscosity, 298.15 K [mPa·s]	viscosity, 308.15 K [mPa·s]	viscosity, 318.15 K [mPa·s]
x2 = 0	1023.1	1014.8	1007.5	1.653	1.412	1.117
x2 = 0.2286	1032.9	1024.9	1017.5	2.234	1.762	1.377
x2 = 0.4001	1042.9	1035.1	1027.5	2.795	2.077	1.607
x2 = 0.5334	1053.1	1045.3	1037.6	3.267	2.355	1.825
x2 = 0.6401	1063.3	1055.5	1047.7	3.596	2.587	1.988
x2 = 0.7273	1073.8	1065.8	1057.9	3.778	2.724	2.1
x2 = 0.8001	1084.4	1076.3	1068.2	3.819	2.779	2.141
x2 = 0.8616	1095.3	1087	1078.7	3.735	2.748	2.111
x2 = 0.9143	1106.4	1097.9	1089.4	3.59	2.685	2.068
x2 = 0.96	1117.7	1109.1	1100.1	3.439	2.608	2.027
